Results on 28 compounds are retold here after patent US11958844B2, “1,3,4-oxadiazole derivative compounds as histone deacetylase 6 inhibitor, and pharmaceutical composition comprising the same” (Chong Kun Dang Pharmaceutical Corp., priority 2018, dated 2024).

Molecules are shown by their SMILES.

This experiment deals with T1, HDAC6 human recombinant (Homo sapiens, UniProt Q9UBN7).
T1 sequence (Q9UBN7 1-1215): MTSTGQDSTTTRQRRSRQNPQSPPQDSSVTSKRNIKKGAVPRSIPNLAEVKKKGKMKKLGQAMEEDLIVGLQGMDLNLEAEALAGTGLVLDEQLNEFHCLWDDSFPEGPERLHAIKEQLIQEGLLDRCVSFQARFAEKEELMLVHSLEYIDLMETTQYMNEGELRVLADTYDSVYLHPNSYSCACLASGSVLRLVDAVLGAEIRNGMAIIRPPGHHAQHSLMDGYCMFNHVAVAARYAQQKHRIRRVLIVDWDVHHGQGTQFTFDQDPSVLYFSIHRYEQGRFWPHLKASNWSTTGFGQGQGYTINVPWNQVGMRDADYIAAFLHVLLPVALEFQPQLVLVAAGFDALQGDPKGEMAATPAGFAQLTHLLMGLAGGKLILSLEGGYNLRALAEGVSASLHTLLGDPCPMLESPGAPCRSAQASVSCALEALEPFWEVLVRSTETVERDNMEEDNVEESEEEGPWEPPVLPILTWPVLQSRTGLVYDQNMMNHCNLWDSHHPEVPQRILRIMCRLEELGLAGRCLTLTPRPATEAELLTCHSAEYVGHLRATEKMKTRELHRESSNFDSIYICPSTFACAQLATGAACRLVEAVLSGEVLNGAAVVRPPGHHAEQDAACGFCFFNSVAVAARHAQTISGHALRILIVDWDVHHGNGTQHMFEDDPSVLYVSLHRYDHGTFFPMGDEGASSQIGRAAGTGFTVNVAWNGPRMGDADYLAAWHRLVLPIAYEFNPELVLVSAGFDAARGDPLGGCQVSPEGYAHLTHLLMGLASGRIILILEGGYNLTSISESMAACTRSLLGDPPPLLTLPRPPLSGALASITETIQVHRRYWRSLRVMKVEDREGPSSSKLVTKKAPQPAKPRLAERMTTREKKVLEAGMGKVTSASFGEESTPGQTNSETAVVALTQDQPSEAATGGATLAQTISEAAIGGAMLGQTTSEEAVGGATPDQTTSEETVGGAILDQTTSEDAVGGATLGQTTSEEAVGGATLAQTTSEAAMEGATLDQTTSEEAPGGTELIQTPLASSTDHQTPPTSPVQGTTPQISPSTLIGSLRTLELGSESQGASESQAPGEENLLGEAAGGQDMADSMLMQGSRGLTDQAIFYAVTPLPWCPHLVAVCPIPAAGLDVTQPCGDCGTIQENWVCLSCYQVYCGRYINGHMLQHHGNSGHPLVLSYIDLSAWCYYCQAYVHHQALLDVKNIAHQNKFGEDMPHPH
The experiment is described as follows: HDAC enzyme activity inhibition (in vitro), fluorimetric HDAC6 assay. In kind it is biochemical. To be noted: samples at 0.1, 1, 10, 100 and 1000 nM, 37° C. 60 minutes, fluorescence Ex 390, Em 460. The procedure: To identify this, HDAC1/6 enzyme selectivity and cell selectivity (HDAC1: histone acetylation/HDAC6: tubulin acetylation) were investigated accordingly.
An HDAC enzyme inhibitory ability of a test material was measured by means of HDAC1 Fluorimetric Drug Discovery Assay Kit (Enzolifesciences: BML-AK511) and HDAC6 human recombinant (Calbiochem: 382180). For an HDAC1 assay, samples were treated at a concentration of 100, 1000 and 10000 nM. For an HDAC6 assay, samples were treated at a concentration of 0.1, 1, 10, 100 and 1000 nM. After such sample treatment, a reaction was continued at 37° C. for 60 minutes, then treated with a developer, and then subjected to reaction at 37° C. for 30 minutes, after which fluorescence intensity (Ex 390, Em 460) was measured by means of FlexStation3 (Molecular device).
Consider `O=c1cc(-c2nnc(C(F)F)o2)ccn1Cc1ccc2ccccc2c1` [Compound 1, 4-(5-(difluoromethyl)-1,3,4-oxadiazole-2-yl)-1-(naphthalene-2-ylmethyl)pyridine-2(1H)-one], for which the IC50 was 82 nM. Next, `O=C(Cn1ccc(-c2nnc(C(F)F)o2)cc1=O)c1ccccc1` [Compound 3, 4-(5-(difluoromethyl)-1,3,4-oxadiazole-2-yl)-1-(2-oxo-2-phenylethyl)pyridine-2(1H)-one]: 210 nM; `O=c1cc(-c2nnc(C(F)F)o2)ccn1C/C=C/c1ccccc1` [Compound 5, 1-cinnamyl-4-(5-(difluoromethyl)-1,3,4-oxadiazole-2-yl)pyridine-2(1H)-one]: 40 nM. `O=c1cc(-c2nnc(C(F)F)o2)ccn1CCn1cccn1` [Compound 6, 1-(2-(1H-pyrazole-1-yl)ethyl)-4-(5-(difluoromethyl)-1,3,4-oxadiazole-2-yl)pyridine-2(1H)-one]: the IC50 was 456 nM. Next, `O=C(Cn1ccc(-c2nnc(C(F)F)o2)cc1=O)c1ccc2ccccc2c1` [Compound 7, 4-(5-(difluoromethyl)-1,3,4-oxadiazole-2-yl)-1-(2-(naphthalene-2-yl)-2-oxoethyl)pyridine-2(1H)-one]: 364 nM. As to `COc1cc(CCn2ccc(-c3nnc(C(F)F)o3)cc2=O)cc(OC)c1` [Compound 8, 4-(5-(difluoromethyl)-1,3,4-oxadiazole-2-yl)-1-(3,5-dimethoxyphenethyl)pyridine-2(1H)-one], the IC50 came to 253 nM. Next, `O=c1cc(-c2nnc(C(F)F)o2)ccn1CCC1OCCCO1` [Compound 9, 1-(2-(1,3-dioxane-2-yl)ethyl)-4-(5-(difluoromethyl)-1,3,4-oxadiazole-2-yl)pyridine-2(1H)-one]: 247 nM; `O=c1cc(-c2nnc(C(F)F)o2)ccn1Cc1cc(F)ccc1F` [Compound 10, 1-(2,5-difluorobenzyl)-4-(5-(difluoromethyl)-1,3,4-oxadiazole-2-yl)pyridine-2(1H)-one]: 217 nM; `CCN(CC)CCn1ccc(-c2nnc(C(F)F)o2)cc1=O` [Compound 11, 1-(2-(diethylamino)ethyl)-4-(5-(difluoromethyl)-1,3,4-oxadiazole-2-yl)pyridine-2(1H)one]: 2250 nM. In the case of `O=c1cc(-c2nnc(C(F)F)o2)ccn1Cc1ccccc1Cl` [Compound 12, 1-(2-chlorobenzyl)-4-(5-(difluoromethyl)-1,3,4-oxadiazole-2-yl)pyridine-2(1H)-one], the 50% inhibitory concentration (IC50) is 631 nM.

Consider `O=c1cc(-c2nnc(C(F)F)o2)ccn1Cc1cc(F)c(F)cc1F` [Compound 13, 4-(5-(difluoromethyl)-1,3,4-oxadiazole-2-yl)-1-(2,4,5-trifluorobenzyl)pyridine-2(1H)-one], for which the IC50 came out at 306 nM.

With `O=c1cc(-c2nnc(C(F)F)o2)ccn1Cc1cccc(F)c1` [Compound 14, 4-(5-(difluoromethyl)-1,3,4-oxadiazole-2-yl)-1-(3-fluorobenzyl)pyridine-2(1H)-one], the half-maximal inhibitory concentration (IC50) is 108 nM. Next, `O=C(Cn1ccc(-c2nnc(C(F)F)o2)cc1=O)OCc1ccccc1` [Compound 15, benzyl 2-(4-(5-(difluoromethyl)-1,3,4-oxadiazole-2-yl)-2-oxopyridine-1(2H)-yl)acetate]: 74 nM; `O=C(OCCn1ccc(-c2nnc(C(F)F)o2)cc1=O)c1ccccc1` [Compound 16, 2-(4-(5-(difluoromethyl)-1,3,4-oxadiazole-2-yl)-2-oxopyridine-1(2H)-yl)ethyl]: 952 nM; `O=c1cc(-c2nnc(C(F)F)o2)ccn1Cc1ccccc1F` [Compound 17, 4-(5-(difluoromethyl)-1,3,4-oxadiazole-2-yl)-1-(2-fluorobenzyl)pyridine-2(1H)-one]: 507 nM. Next, `O=C(Cn1ccc(-c2nnc(C(F)F)o2)cc1=O)c1ccc(Cl)c(Cl)c1` [Compound 18, 1-(2-(3,4-dichlorophenyl)-2-oxoethyl)-4-(5-(difluoromethyl)-1,3,4-oxadiazole-2-yl)pyridine-2(1H)-one]: 509 nM; `O=C(Cn1ccc(-c2nnc(C(F)F)o2)cc1=O)c1ccc(Cl)cc1` [Compound 19, 1-(2-(4-chlorophenyl)-2-oxoethyl)-4-(5-(difluoromethyl)-1,3,4-oxadiazole-2-yl)pyridine-2(1H)-one]: 351 nM. Next, `COc1ccc(C(=O)Cn2ccc(-c3nnc(C(F)F)o3)cc2=O)c(OC)c1` [Compound 20, 4-(5-(difluoromethyl)-1,3,4-oxadiazole-2-yl)-1-(2-(2,4-dimethoxyphenyl)-2-oxoethyl) pyridine-2(1H)-one]: 257 nM; `O=C(Cn1ccc(-c2nnc(C(F)F)o2)cc1=O)c1ccc2c(c1)OCCO2` [Compound 21]: 381 nM; `COc1cccc(C(=O)Cn2ccc(-c3nnc(C(F)F)o3)cc2=O)c1` [Compound 22, 4-(5-(difluoromethyl)-1,3,4-oxadiazole-2-yl)-1-(2-(3-methoxyphenyl)-2-oxoethyl)pyridine-2(1H)-one]: 427 nM.

Regarding `Cc1cc(C(=O)Cn2ccc(-c3nnc(C(F)F)o3)cc2=O)c(F)cc1Cl` [Compound 23, 1-(2-(4-chloro-2-fluoro-5-methylphenyl)-2-oxoethyl)-4-(5-(difluoromethyl)-1,3,4-oxadiazole-2-yl)pyridine-2(1H)-one], the half-inhibitory concentration (IC50) was 598 nM. Next, `COc1ccc(OC)c(C(=O)Cn2ccc(-c3nnc(C(F)F)o3)cc2=O)c1` [Compound 24, 4-(5-(difluoromethyl)-1,3,4-oxadiazole-2-yl)-1-(2-(2,5-dimethoxyphenyl)-2-oxoethyl) pyridine-2(1H)-one]: 284 nM; `O=C(Cn1ccc(-c2nnc(C(F)F)o2)cc1=O)c1ccc([N+](=O)[O-])cc1` [Compound 25, 4-(5-(difluoromethyl)-1,3,4-oxadiazole-2-yl)-1-(2-(4-nitrophenyl)-2-oxoethyl)pyridine-2(1H)-one]: 239 nM; `O=c1cc(-c2nnc(C(F)F)o2)ccn1Cc1ccc([N+](=O)[O-])cc1` [Compound 26, 4-(5-(difluoromethyl)-1,3,4-oxadiazole-2-yl)-1-(4-nitrobenzyl)pyridine-2(1H)-one]: 272 nM. Next, `CCC(CC)Cn1ccc(-c2nnc(C(F)F)o2)cc1=O` [Compound 27, 4-(5-(difluoromethyl)-1,3,4-oxadiazole-2-yl)-1-(2-ethylbutyl)pyridine-2(1H)-one]: 726 nM; `O=c1cc(-c2nnc(C(F)F)o2)ccn1Cc1noc(C(F)(F)F)n1` [Compound 28, 4-(5-(difluoromethyl)-1,3,4-oxadiazole-2-yl)-1-((5-(trifluoromethyl)-1,2,4-oxadiazole-3-yl)methyl)pyridine-2(1H)-one]: 156 nM; `O=C1c2ccccc2C(=O)N1CCCCn1ccc(-c2nnc(C(F)F)o2)cc1=O` [Compound 29, 2-(4-(4-(5-(difluoromethyl)-1,3,4-oxadiazole-2-yl)-2-oxopyridine-1(2H)-yl)butyl)isoindoline-1,3-dione]: 261 nM. Next, `O=c1cc(-c2nnc(C(F)(F)F)o2)ccn1Cc1cc(F)c(F)cc1F` [Compound 30, 1-(2,4,5-trifluorobenzyl)-4-(5-(trifluoromethyl)-1,3,4-oxadiazole-2-yl)pyridine-2(1H)one]: 1790 nM.
